Read-outs that look alike come from different tables or passages of the source.
How the values were obtained:
Type in all cases: biochemical
glucose-1-phosphatase = glucose-1-phosphatase (Escherichia coli, UniProt P19926, D396N/Q163K/Y105D); settings: 20 mM αGlc 1-P and 200 mM acceptor
Experimental: FIG. 10: Acceptor substrates phosphorylated by glucose-1-phosphatase. […] Product yields were determined at conversions >90% except for N-acetyl D-glucosamine (GlcNAc) 38%, D-glucosamine (D-GlcN) 81%, D-xylose (D-Xyl) 69%, L-Arabinose (L-Ara) 86%, D-Xylitol (D-Xol) 89% and L-Fucose (L-Fuc) 75%, respectively. All acceptors are phosphorylated at the C1-OH position except for (*) D-glucosamine where the predominant product was phosphorylated at the C6-OH. Light grey bars indicate rS/rP ratio, while the dark grey bars indicate the product yield.
Product yields were determined at conversions >90% except for N-acetyl D-glucosamine (GlcNAc) 38%, D-glucosamine (D-GlcN) 81%, D-xylose (D-Xyl) 69%, L-Arabinose (L-Ara) 86%, D-Xylitol (D-Xol) 89% and L-Fucose (L-Fuc) 75%, respectively. All acceptors are phosphorylated at the C1-OH position except for (*) D-glucosamine where the predominant product was phosphorylated at the C6-OH. Light grey bars indicate rS/rP ratio, while the dark grey bars indicate the product yield.

αGlc 1-P phosphatase [1] = molecular target: T1, αGlc 1-P phosphatase (Escherichia coli, UniProt P19926, D396N/Q163K/Y105D); settings: for Fru 1-P kcat_app (formation) / Fru 6-P kcat_app (formation) / Glc 6-P kcat_app (formation) / Glc 1-P kcat_app (consumption) / Phosphate kcat_app (release): pH 7.0, 37° C.
T1 construct: Strep-tag (N); made in house; host or cells: E. coli Origami B (DE3), cytoplasmic, pMS470_dsbC vector (DsbC co-expressed)
Experimental: Fru 6-P was measured using an assay with mannitol 1-phosphate dehydrogenase (52). […] (1)
Fru (100, 200, 400 or 600 mM) or Glc (200 mM) was used as the acceptor substrate. […] Sampling was done to allow for determination of initial rates, but the full reaction time course was also recorded. Relevant kcat_app values for substrate consumption, phosphate release, and phosphoryl transfer were obtained from the corresponding V values using equation 2. Internal consistency of the data was always checked by mass balance. pH dependence of phosphoryl transfer. […] A 50 mM Mes buffer was used, except at pH ≤6.0 where 50 mM Mes and 20 mM sodium acetate were used, and at pH 8.0 where 50 mM Mes and 50 mM Tes were used. Buffer pH values were adjusted at 37° C. and controlled before and after recording each enzyme-catalyzed reaction. Sampling and analyses were as described above.
For data analysis by non-linear least-squares regression, SigmaPlot 2004 version 9.0 was used. Equation 3 describes a pH dependence where activity (expressed as logarithmic kcat_app) is constant at low pH and decreases above pKB. C is the pH-independent value of kcat_app at the optimum state of protonation, K is the proton dissociation constant and [H^+] is the proton concentration. log(kcat_app)=log(C/(1+K/[H^+])) (3) High Performance Anion Exchange Chromatography with Pulsed Amperometric Detection (HPAEC-PAD).
Selected samples were analyzed on a Dionex BioLC system (Dionex Corporation, Sunnyvale, USA) equipped with a CarboPac PA10 column (4×250 mm) and an Amino Trap guard column (4×50 mm) thermostated at 30° C. […] Elution was carried out at a flow rate of 0.9 mL/min with the following method: isocratic flow of 52 mM NaOH for 20 min, followed by a linear gradient from 100 mM NaOAc to 400 mM NaOAc, applied within 25 min in an isocratic background of 100 mM NaOH. The column was washed for 5 min with 52 mM NaOH.

αGlc 1-P phosphatase [2] = molecular target: T1, αGlc 1-P phosphatase; settings: 20 mM substrate; for hydrolysis by αGlc 1-P phosphatase (in words): pyrophosphate and phytate at pH 7.0 and pH 4.5
Experimental: Inorganic phosphate was determined colorimetrically at 850 nm (56).
Hydrolysis reactions were carried out at an initial substrate concentration of 20 mM. […] Samples were taken in 15 min intervals, heat-treated (99° C., 5 min), and centrifuged at 20,000 g for 5 min. The release of phosphate was measured, and the initial rate V (mM min^−1) was determined from the linear relationship between phosphate concentration and time. […] (2)
A series of phosphorylated sugars were tested as substrates for hydrolysis by phosphatase.

[3] = 0.1 μM enzyme, 37° C., 50 mM Mes pH 7.0, n.d. = no activity above assay detection limit
[4] = 200 mM Glc acceptor, 20 mM αGlc 1-P
[5] = 200 mM Glc acceptor, 20 mM αGlc 1-P, pH 7.0

T1 sequence (P19926 other isoform, or with tags, fused parts or gaps Y105D/Q163K/D396N): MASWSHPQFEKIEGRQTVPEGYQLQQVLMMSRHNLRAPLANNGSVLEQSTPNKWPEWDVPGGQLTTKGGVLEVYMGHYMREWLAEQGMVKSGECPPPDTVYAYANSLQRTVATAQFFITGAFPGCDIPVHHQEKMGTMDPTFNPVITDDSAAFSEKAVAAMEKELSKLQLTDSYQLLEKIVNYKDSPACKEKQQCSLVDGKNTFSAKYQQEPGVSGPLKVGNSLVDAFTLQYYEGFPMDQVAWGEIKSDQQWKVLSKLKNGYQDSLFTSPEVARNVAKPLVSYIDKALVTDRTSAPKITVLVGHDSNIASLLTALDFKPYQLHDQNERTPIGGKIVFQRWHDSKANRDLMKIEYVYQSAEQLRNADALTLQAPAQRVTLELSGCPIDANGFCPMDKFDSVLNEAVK
glucose-1-phosphatase, sequence (P19926 other isoform, or with tags, fused parts or gaps Y105D/Q163K/D396N): as above

O=C[C@H](O)[C@@H](O)[C@H](O)[C@H](O)C(=O)O [D-Glucuronic acid]
phosphorylation of acceptor by glucose-1-phosphatase (in words) (glucose-1-phosphatase): not phosphorylated

N[C@H]1C(O)O[C@H](CO)[C@H](O)[C@@H]1O (stereo partly drawn) [D-galactosamine]
phosphorylation of acceptor by glucose-1-phosphatase (in words) (glucose-1-phosphatase): not phosphorylated

O=C(COP(=O)(O)O)[C@@H](O)[C@H](O)[C@H](O)CO [Fru 1-P, D-fructose 1-phosphate]
Fru 1-P kcat_app (formation) (αGlc 1-P phosphatase [1]; Fru 100 mM, 20 mM αGlc 1-P): 39 s⁻¹ | Fru 1-P kcat_app (formation) (αGlc 1-P phosphatase [1]; Fru 200 mM, 20 mM αGlc 1-P): 88 s⁻¹ | Fru 1-P kcat_app (formation) (αGlc 1-P phosphatase [1]; Fru 400 mM, 20 mM αGlc 1-P): 111^a s^−1 | Fru 1-P kcat_app (formation) (αGlc 1-P phosphatase [1]; Fru 600 mM, 20 mM αGlc 1-P): 135 s⁻¹ | αGlc 1-P phosphatase kcat_app, hydrolysis (αGlc 1-P phosphatase [2]; [3]): 22 s⁻¹

O=C(CO)[C@@H](O)[C@H](O)[C@H](O)COP(=O)(O)O [Fru 6-P, D-fructose-6-phosphate]
Fru 6-P kcat_app (formation) (αGlc 1-P phosphatase [1]; Fru 100 mM, 20 mM αGlc 1-P): 11^b s^−1 | Fru 6-P kcat_app (formation) (αGlc 1-P phosphatase [1]; Fru 200 mM, 20 mM αGlc 1-P): 20^ s^−1 | Fru 6-P kcat_app (formation) (αGlc 1-P phosphatase [1]; Fru 400 mM, 20 mM αGlc 1-P): 28^ s^−1 | Fru 6-P kcat_app (formation) (αGlc 1-P phosphatase [1]; Fru 600 mM, 20 mM αGlc 1-P): 36^c s^−1 | αGlc 1-P phosphatase kcat_app, hydrolysis (αGlc 1-P phosphatase [2]; [3]): 22^a s^−1

O=C[C@H](O)[C@@H](O)[C@H](O)[C@H](O)COP(=O)(O)O [Glc 6-P, D-glucose-6-phosphate]
kcat_app ratio for formation of Glc 6-P and phosphate (αGlc 1-P phosphatase [1]; [4]): 8.5 | kcat_app for Glc 6-P synthesis (αGlc 1-P phosphatase [1]; [5]): 34 s⁻¹ | Glc 6-P kcat_app (formation) (αGlc 1-P phosphatase [1]; Fru 100 mM, 20 mM αGlc 1-P): 5 s⁻¹ | Glc 6-P kcat_app (formation) (αGlc 1-P phosphatase [1]; Fru 200 mM, 20 mM αGlc 1-P): 6 s⁻¹ | Glc 6-P kcat_app (formation) (αGlc 1-P phosphatase [1]; Fru 400 mM, 20 mM αGlc 1-P): 4 s⁻¹ | Glc 6-P kcat_app (formation) (αGlc 1-P phosphatase [1]; Fru 600 mM, 20 mM αGlc 1-P): 5 s⁻¹ | αGlc 1-P phosphatase kcat_app, hydrolysis (αGlc 1-P phosphatase [2]; [3]): 56 s⁻¹

O=P(O)(O)O[C@H]1[C@H](OP(=O)(O)O)[C@@H](OP(=O)(O)O)[C@H](OP(=O)(O)O)[C@@H](OP(=O)(O)O)[C@H]1OP(=O)(O)O [Phytate, myo-inositol hexakisphosphate]
hydrolysis by αGlc 1-P phosphatase (in words) (αGlc 1-P phosphatase [2]): weakly active | αGlc 1-P phosphatase kcat_app, hydrolysis (αGlc 1-P phosphatase [2]; reactions at pH 7.0 and pH 4.5 (50 mM sodium acetate), phytate active only at pH 4.5, n.d. = no activity above detection limit): 2.1 s⁻¹

O=P(O)(O)OP(=O)(O)O [Pyrophosphate]
hydrolysis by αGlc 1-P phosphatase (in words) (αGlc 1-P phosphatase [2]): not hydrolyzed

O=P(O)(O)O[C@H]1O[C@H](CO)[C@@H](O)[C@H](O)[C@H]1O [αGlc 1-P, alpha-glucose-1-phosphate]
enhancement of α-Glc 1-P consumption rate compared to control without Fru (αGlc 1-P phosphatase [1]; 200 mM Fru, 20 mM α-Glc 1-P): about 3 fold | kcat_app for α-Glc 1-P consumption (αGlc 1-P phosphatase [1]; [5]): 40 s⁻¹ | Glc 1-P kcat_app (consumption) (αGlc 1-P phosphatase [1]; Fru 0 mM, 20 mM αGlc 1-P): 40 s⁻¹ | Glc 1-P kcat_app (consumption) (αGlc 1-P phosphatase [1]; Fru 100 mM, 20 mM αGlc 1-P): 73 s⁻¹ | Glc 1-P kcat_app (consumption) (αGlc 1-P phosphatase [1]; Fru 200 mM, 20 mM αGlc 1-P): 137 s⁻¹ | Glc 1-P kcat_app (consumption) (αGlc 1-P phosphatase [1]; Fru 400 mM, 20 mM αGlc 1-P): 162 s⁻¹ | Glc 1-P kcat_app (consumption) (αGlc 1-P phosphatase [1]; Fru 600 mM, 20 mM αGlc 1-P): 189 s⁻¹ | increase of kcat_app (α-Glc 1-P) in hyperbolic dependence of the Fru concentration (αGlc 1-P phosphatase [1]; Fru 100-600 mM): about 5 fold | αGlc 1-P phosphatase kcat_app, hydrolysis (αGlc 1-P phosphatase [2]; [3]): 40 s⁻¹

O=P(O)(O)O[C@@H]1O[C@H](CO)[C@@H](O)[C@H](O)[C@H]1O [βGlc 1-P]
hydrolysis by αGlc 1-P phosphatase (in words) (αGlc 1-P phosphatase [2]): completely inactive

phosphate
decrease of phosphate release rate compared to control without Fru (αGlc 1-P phosphatase [1]; 200 mM Fru, 20 mM α-Glc 1-P): about 2 fold | suppression of phosphate release rate compared to control reaction lacking Glc (αGlc 1-P phosphatase [1]; [4]): about 10 fold | kcat_app of phosphate formation (αGlc 1-P phosphatase [1]; [5]): 4 s⁻¹ | Phosphate kcat_app (release) (αGlc 1-P phosphatase [1]; Fru 0 mM, 20 mM αGlc 1-P): 40 s⁻¹ | Phosphate kcat_app (release) (αGlc 1-P phosphatase [1]; Fru 100 mM, 20 mM αGlc 1-P): 21 s⁻¹ | Phosphate kcat_app (release) (αGlc 1-P phosphatase [1]; Fru 200 mM, 20 mM αGlc 1-P): 18 s⁻¹ | Phosphate kcat_app (release) (αGlc 1-P phosphatase [1]; Fru 400 mM, 20 mM αGlc 1-P): 14 s⁻¹ | Phosphate kcat_app (release) (αGlc 1-P phosphatase [1]; Fru 600 mM, 20 mM αGlc 1-P): 13 s⁻¹
